Common to all, as to format: in vivo
The subject of test [1] is cocklebur (common cocklebur, Xanthium strumarium). The experiment in a line: Test F pre-/postemergence: cocklebur. Conditions: Preemergence. In outline:
(§1)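 Preemergence treatment of seeds sown in silt loam soil, and postemergence treatment of plants 2–18 cm tall (1- to 4-leaf stage), with compounds in non-phytotoxic solvent plus surfactant. Greenhouse 14–21 days, then visual rating versus controls on 0–100 scale (100 = complete control).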

Test [2] has as its system crabgrass, large (large crabgrass, Digitaria sanguinalis). In words: Test F pre-/postemergence: crabgrass, large. The settings on record: Preemergence. In outline:
as §1

Test [3] deals with panicum, fall (fall panicum Panicum dichotomiflorum). The experiment in a line: Test F pre-/postemergence: panicum, fall. The source says: Seeds of plant species selected from corn (Zea mays), soybean (Glycine max), velvetleaf (Abutilon theophrasti), lambsquarters (Chenopodium album), poinsettia, wild (wild poinsettia, Euphorbia heterophylla), pigweed, palmer (palmer pigweed, Amaranthus palmeri), waterhemp (common waterhemp, Amaranthus rudis), surinam grass (Brachiaria decumbens), crabgrass, Brazil (Brazilian crabgrass, Digitaria horizontalis), panicum, fall (fall panicum Panicum dichotomiflorum), crabgrass, large (large crabgrass, Digitaria sanguinalis), foxtail, giant (giant foxtail, Setaria faberii), foxtail, green (green foxtail Setaria viridis), goosegrass (Eleusine indica), ragweed (common ragweed, Ambrosia elatior), barnyardgrass (Echinochloa crus-galli), sandbur (southern sandbur, Cenchrus echinatus), arrowleaf sida (Sida rhombifolia), ryegrass, Italian (Italian ryegrass, Lolium multiflorum), dayflower, VA (Virginia (VA) dayflower, Commelina virginica), field bindweed (Convolvulus arvensis), cocklebur (common cocklebur, Xanthium strumarium), morningglory (Ipomoea coccinea), nightshade (eastern black nightshade, Solanum ptycanthum), kochia (Kochia scoparia), nutsedge, yellow (yellow nutsedge, Cyperus esculentus), johnsongrass (Sorghum halepense), smartweed (ladysthumb smartweed, Polygonum persicaria), and beggarticks (hairy beggarticks, Bidens pilosa), were planted into a silt loam soil and treated preemergence with test chemicals formulated in a non-phytotoxic solvent mixture which included a surfactant. At the same time, plants selected from these crop and weed species and also pigweed (Amaranthus retroflexus), waterhemp_RES1 (ALS/Triazine resistant common waterhemp, Amaranthus rudis) and waterhemp_RES2 (ALS/HPPD resistant common waterhemp, Amaranthus rudis) were planted in pots containing a planting medium comprising spaghnum peat moss, vermiculite, wetting agent and starter nutrients treated with postemergence applications of some of the test chemicals formulated in the same manner. Plants ranged in height from 2 to 18 cm for postemergence treatments (1- to 4-leaf stage).
Treated plants and controls were maintained in a greenhouse for 14 to 21 days, after which time all species were compared to controls and visually evaluated. Plant response ratings, summarized in Table E, are based on a scale of 0 to 100 where 0 is no effect and 100 is complete control. A dash (-) response means no test result.

Test [4] concerns barnyardgrass (Echinochloa crus-galli). In words: Test C pre-/postemergence: barnyardgrass. Conditions: Preemergence, 250 g ai/ha; scale 0 to 100, 0 no effect, 100 complete control.
The test system of a further test is Oilseed Rape. The experiment in a line: Test C pre-/postemergence: oilseed rape. Conditions: Preemergence, 250 g ai/ha; scale 0 to 100, 0 no effect, 100 complete control. The source says: Seeds of plant species selected from blackgrass (Alopecurus myosuroides), bromegrass, downy (downy bromegrass, Bromus tectorum), foxtail, green (green foxtail, Setaria viridis), ryegrass, Italian (Italian ryegrass, Lolium multiflorum), winter wheat (Triticum aestivum), wild oat (Avena fatua), galium (catchweed bedstraw, Galium aparine), bermudagrass (Cynodon dactylon), surinam grass (Brachiaria decumbens), cocklebur (common cocklebur, Xanthium strumarium), corn (Zea mays), large crabgrass (Digitaria sanguinalis), woolly cupgrass (Eriochloa villosa), foxtail, giant (giant foxtail, Setaria faberii), goosegrass (Eleusine indica), johnsongrass (Sorghum halepense), kochia (Kochia scoparia), lambsquarters (Chenopodium album), morningglory (Ipomoea coccinea), nightshade (eastern black nightshade, Solanum ptycanthum), nutsedge, yellow (yellow nutsedge, Cyperus esculentus), pigweed (Amaranthus retroflexus), ragweed (common ragweed, Ambrosia elation), soybean (Glycine max), common (oilseed) sunflower (Helianthus annuus), Russian thistle (Salsola kali) and velvetleaf (Abutilon theophrasti) were planted into a blend of loam soil and sand and treated preemergence with test chemicals formulated in a non-phytotoxic solvent mixture which included a surfactant.
At the same time, plants selected from these crop and weed species and also barley (winter barley, Hordeum vulgare), canarygrass (Phalaris minor), chickweed (common chickweed, Stellaria media) windgrass (Apera spica-venti) and deadnettle (henbit deadnettle, Lamium amplexicaule) were planted in pots containing Redi-Earth® planting medium (Scotts Company, 14111 Scottslawn Road, Marysville, Ohio 43041) comprising spaghnum peat moss, vermiculite, wetting agent and starter nutrients and treated with postemergence applications of test chemicals formulated in the same manner. Plants ranged in height from 2 to 18 cm (1- to 4-leaf stage) for postemergence treatments.
Treated plants and controls were maintained in a greenhouse for 13 to 15 days, after which time all species were compared to controls and visually evaluated. Plant response ratings, summarized in Table C, are based on a scale of 0 to 100 where 0 is no effect and 100 is complete control. A dash (-) response means no test result.

Setting [5] is: 8 g ai/ha, scale 0 to 100, 0 no effect, 100 complete control.
Where [6] appears, read: 31 g ai/ha, scale 0 to 100 (0 no effect, 100 complete control).

Data on one molecule can be found in patent US9302999B2, “Substituted triazoles as herbicides” (E. I. DU PONT DE NEMOURS AND COMPANY, priority 2012, dated 2016).

`Cc1nn(-c2ccc(C(F)(F)F)c(F)c2)nc1Cc1ccnc(C(F)(F)F)c1` [Compound 162]: the “Plant response rating, Cocklebur” value in test [1] (4 g ai/ha, scale 0 to 100, 0 no effect, 100 complete control) was determined as 0; in test [1] (setting [5]), 0; in test [1] (setting [6]), 0; in test [1] (62 g ai/ha, scale 0 to 100), 0. Also, the “Plant response rating, Crabgrass, Large” value was determined as 0 in test [2] (setting [5]); 0 in test [2] (16 g ai/ha, scale 0 to 100 (0 no effect, 100 complete control)); 95 in test [2] (setting [6]); 100 in test [2] (62 g ai/ha, scale 0 to 100). The “Plant response rating, Panicum, Fall” value in test [3] (Postemergence, 4 g ai/ha, scale 0 to 100) was 15; in test [3] (Postemergence, 8 g ai/ha, scale 0 to 100), 20; in test [3] (Postemergence, 16 g ai/ha, scale 0 to 100), 20; in test [3] (Postemergence, 31 g ai/ha, scale 0 to 100) it was 25; in test [3] (Postemergence, 62 g ai/ha, scale 0 to 100), 30; in test [3] (Preemergence, 4 g ai/ha, scale 0 to 100, 0 no effect, 100 complete control), 0. For the same molecule, the “Plant response rating, Panicum, Fall” value in test [3] (Preemergence, 8 g ai/ha, scale 0 to 100, 0 no effect, 100 complete control) was found to be 0; in test [3] (Preemergence, 16 g ai/ha, scale 0 to 100 (0 no effect, 100 complete control)), 100; in test [3] (Preemergence, 31 g ai/ha, scale 0 to 100 (0 no effect, 100 complete control)), 100. Further, in test [4], the “Plant response rating, Barnyardgrass” value was determined as 100. Besides, in the test on Oilseed Rape, the “Plant response rating, Oilseed Rape” value is given as 100.
